Test [1] is described as follows: Cytotoxicity against C57BL/6 mouse peritoneal macrophages assessed as cell viability by lactate dehydrogenase release assay. Format: cell-based. As to conditions: C57BL/6, Peritoneal macrophage cell.
The nature of test [2]: Selectivity index, ratio of IC50 for C57BL/6 mouse peritoneal macrophages to MIC for Mycobacterium tuberculosis H37Rv.
Test [3] has as its system Mycobacterium tuberculosis. The test is described as follows: Antituberculosis activity against isoniazid-sensitive Mycobacterium tuberculosis H37Rv by microdilution method. It counts as functional.

Converted amounts (≈) assume the structure as drawn. The source made the active and inactive calls. The calls are words filed in the database; no cut-off is given here.

One may read the IC50 as the concentration needed to halve the response being measured. In general, MIC refers to the least concentration at which growth counts as inhibited. For `CCOC(=O)c1[nH]c2ccccc2c1/C=N\NC(=O)c1ccncc1`, the IC50 in test [1] is 16 µg/mL (≈ 47.6 µM). Also, in test [2], the “Selectivity Index” value stood at 106.6. Moreover, in test [3], the minimal inhibitory concentration (MIC) was found to be 0.15 µg/mL (≈ 0.446 µM).

Turning to `CCOC(=O)c1[nH]c2ccccc2c1CN(NC(=O)c1ccncc1)C(=O)Nc1ccc(Cl)cc1`, the MIC entry in test [3] was “inactive”.

In the case of `O=C(N/N=C\c1c[nH]c2ccccc12)c1cc[n+]([O-])cc1`, in test [1], the IC50 turned out to be 30 µg/mL (≈ 107 µM). Moreover, the “Selectivity Index” value in test [2] was 30. Moreover, the lowest concentration to inhibit growth in test [3] (MIC) was 1 µg/mL (≈ 3.57 µM).

With `CC(=O)N1C/C(=N\NC(N)=S)c2ccccc21`, the MIC in test [3] is > 10 µg/mL.

In test [3], `NNC(=O)c1cccnc1` [NICOTINIC ACID HYDRAZIDE] returned an MIC of 5 µg/mL (≈ 36.5 µM).

Regarding `NNC(=O)c1ccncc1` [ISONIAZID], the IC50 in test [1] was > 100 µg/mL. Besides, the “Selectivity Index” value in test [2] is recorded as >1666. In test [3], the minimal inhibitory concentration (MIC) is 0.06 µg/mL (≈ 0.438 µM).

For `O=C(NNCc1c[nH]c2ccccc12)c1ccncc1`, the IC50 in test [1] came to 15 µg/mL (≈ 56.3 µM). Besides, in test [2], the “Selectivity Index” value is 150. Moreover, the minimal inhibitory concentration (MIC) in test [3] was determined as 0.1 µg/mL (≈ 0.376 µM).

In the case of `NC(=S)N/N=C/c1c(C(=O)O)[nH]c2ccccc12`, the MIC in test [3] was > 10 µg/mL.

In test [3], `CCOC(=O)c1[nH]c2ccc(Cl)cc2c1/C=N\NC(=O)c1ccncc1` displayed an MIC of 0.1 µg/mL (≈ 0.27 µM).

Regarding `CCOC(=O)c1[nH]c2ccc(C)cc2c1/C=N/NC(N)=S`, in test [3], the MIC worked out at 2 µg/mL (≈ 6.57 µM).

On to `NNC(=O)c1ccc[n+]([O-])c1`, for which, in test [3], the minimal inhibitory concentration (MIC) is > 10 µg/mL.

Consider `CCOC(=O)c1[nH]c2ccc(C)cc2c1/C=N\NC(=O)c1ccncc1`, for which, in test [1], the IC50 turned out to be 15 µg/mL (≈ 42.8 µM). Further, in test [2], the “Selectivity Index” value came to 300. The same compound gave an MIC in test [3] of 0.05 µg/mL (≈ 0.143 µM).

In test [3], `CCOC(=O)c1[nH]c2ccc(Br)cc2c1CNNC(=O)c1ccncc1` had an MIC of 10 µg/mL (≈ 24 µM).

Regarding `O=C(N/N=C\c1c[nH]c2ccccc12)c1ccncc1`, the 50% inhibitory concentration (IC50) in test [1] was 40 µg/mL (≈ 151 µM). For the same compound, the “Selectivity Index” value in test [2] is listed as 400. Further, 0.1 µg/mL (≈ 0.378 µM) was the least that counted as inhibitory in test [3] (MIC).

The compound `CCOC(=O)c1[nH]c2ccccc2c1CNNC(=O)C1CCNCC1.CS(=O)(=O)O` registered a minimum inhibitory concentration (MIC) in test [3] of 20 µg/mL.

The compound `CCOC(=O)c1[nH]c2ccc(Cl)cc2c1CNNC(=O)c1ccncc1` gave an MIC in test [3] of 0.2 µg/mL (≈ 0.536 µM).

For the compound `NNC(=O)c1cc[n+]([O-])cc1`, in test [1], the half-inhibitory concentration (IC50) was 60 µg/mL (≈ 392 µM). For the same compound, the “Selectivity Index” value in test [2] was determined as 11.5. Further, the minimum inhibitory concentration (MIC) in test [3] is 5.2 µg/mL (≈ 34 µM).

In the case of `Cc1ccc2[nH]c(C(=O)O)c(/C=N\NC(=O)c3ccncc3)c2c1`, the concentration for half-maximal inhibition (IC50) in test [1] came out at 25 µg/mL (≈ 77.6 µM). Moreover, the “Selectivity Index” value in test [2] is listed as 250. In test [3], this compound displayed an MIC of 0.1 µg/mL (≈ 0.31 µM).

Take `CCOC(=O)c1[nH]c2ccccc2c1CN(NC(=O)c1ccncc1)C(=O)c1ccncc1`: in test [3], the MIC entry was “inactive”.

On to `CC(=O)n1cc(NNC(=O)c2ccncc2)c2ccccc21`, for which the IC50 in test [1] came to 50 µg/mL (≈ 170 µM). For the same compound, the “Selectivity Index” value in test [2] turned out to be 250. In test [3], the minimum inhibitory concentration (MIC) was 0.2 µg/mL (≈ 0.68 µM).

`CC(=O)n1cc(NNC(=O)c2ccc[n+]([O-])c2)c2ccccc21`: in test [1], the concentration for half-maximal inhibition (IC50) amounted to 17 µg/mL (≈ 54.8 µM). Besides, in test [3], the MIC turned out to be 2 µg/mL (≈ 6.45 µM).

In turn, `CCOC(=O)c1[nH]c2ccc(C)cc2c1CNNC(=O)c1ccncc1` had a minimal inhibitory concentration (MIC) in test [3] of 0.2 µg/mL (≈ 0.568 µM).

The compound `CCOC(=O)c1[nH]c2ccccc2c1CNNC(=O)c1ccncc1` yielded a minimal inhibitory concentration (MIC) in test [3] of 0.2 µg/mL (≈ 0.591 µM).

Compound `CC(=O)n1cc(NNC(=O)c2cccnc2)c2ccccc21` returned an MIC in test [3] of 20 µg/mL (≈ 68 µM).

`CC(=O)n1cc(N(NC(=O)c2ccncc2)C(=O)Nc2ccc(Cl)cc2)c2ccccc21`: the MIC result in test [3] is “inactive”.

As for `NC(=S)N/N=C/c1c(C(=O)O)[nH]c2ccc(Cl)cc12`, the lowest concentration to inhibit growth in test [3] (MIC) was 10 µg/mL (≈ 33.7 µM).

For the compound `CC(=O)n1cc(NNC(=O)c2cc[n+]([O-])cc2)c2ccccc21`, the MIC in test [3] turned out to be 2 µg/mL (≈ 6.45 µM).

Turning to `CCOC(=O)c1[nH]c2ccccc2c1CNNC(=O)c1cc[n+]([O-])cc1`, the IC50 in test [1] was 16 µg/mL (≈ 45.2 µM). Moreover, the “Selectivity Index” value in test [2] turned out to be 8. Moreover, in test [3], the MIC was found to be 2 µg/mL (≈ 5.64 µM).

Turning to `COc1ccc2[nH]c(C(=O)O)c(/C=N/NC(N)=S)c2c1`, the MIC in test [3] is > 10 µg/mL.

Consider `CCOC(=O)c1[nH]c2ccc(OC)cc2c1/C=N/NC(N)=S`, for which the MIC in test [3] is > 10 µg/mL.

As to `CCOC(=O)c1[nH]c2ccccc2c1/C=N\NC(=O)c1cc[n+]([O-])cc1`, in test [1], the IC50 was determined as 18 µg/mL (≈ 51.1 µM). For the same compound, the “Selectivity Index” value in test [2] was 9. For the same compound, the MIC in test [3] came out at 2 µg/mL (≈ 5.68 µM).

In the case of `Cc1ccc2[nH]c(C(=O)O)c(/C=N/NC(N)=S)c2c1`, the minimum inhibitory concentration (MIC) in test [3] was > 10 µg/mL.

Values taken from ChEMBL document CHEMBL3751705, “Synthesis and antituberculosis activity of indole-pyridine derived hydrazides, hydrazide-hydrazones, and thiosemicarbazones” (Bioorg Med Chem Lett, 2016).
